For orientation: EC50 means the concentration giving half of the maximal effect.

EC50 data for one substance are collected here from US20120122969A1, “TREATMENT OF PERVASIVE DEVELOPMENTAL DISORDERS WITH TOCOTRIENOLS OR TOCOTRIENOL ENRICHED EXTRACTS” (AMPERE LIFE SCIENCES, INC., priority 2009, published 2012).

This assay relates to Human Dermal Fibroblasts from Autistic Patients. Briefly: Rescue of ASD fibroblasts stressed by addition of L-buthionine-(S,R)-sulfoximine (BSO), Calcein AM viability readout. The conditions noted are these: 1 mM BSO, 48 hours, Calcein AM fluorescence, viability relative to non-BSO treated fibroblasts (100%); read-out: EC50 of protection against ASD (rescue of BSO-stressed ASD fibroblasts). Format: cell-based. As to the method:
A screen was performed to identify compounds effective for the amelioration of ASD. Test samples, and solvent controls were tested for their ability to rescue ASD fibroblasts stressed by addition of L-buthionine-(S,R)-sulfoximine (BSO).
MEM (a medium enriched in amino acids and vitamins, catalog no. Gibco 11965) and Fetal Calf Serum were obtained from Invitrogen. Basic fibroblast growth factor and epidermal growth factor were purchased from PeproTech. Penicillin-streptomycin-glutamine mix, L-buthionine (S,R)-sulfoximine, and insulin from bovine pancreas were purchased from Sigma. Calcein AM was purchased from Molecular Probes. Cell culture medium (ATP) was made by combining 75 ml Fetal Calf Serum, 100 U/ml penicillin, 100 μg/ml streptomycin, 2 mM glutamine, 10 ng/ml EGF, and 10 ng/ml bFGF; MEM EBS was added to make the volume up to 500 ml. A 10 mM BSO solution was prepared by dissolving 444 mg BSO in 200 ml of medium with subsequent filter-sterilization. […]
100 μl of PBS containing 1.2 μM Calcein AM were then added to each well. […] After that time the PBS was discarded, the plate gently tapped on a paper towel and fluorescence (excitation/emission wavelengths of 485 nm and 525 nm, respectively) was read on a Gemini fluorescence reader. […]
The viability of non-BSO treated fibroblasts was set as 100%, and the viability of the BSO- and compound-treated cells was calculated as relative to this value.

Bounds are passed on as bounds.

alpha-tocotrienol: the EC50 was < 50 nM.
